pIC50: −log10 of the molar value. Counter-ions that a name gives are not always drawn.

One assay addresses T1, FAAH in human bladder epithelial cancer-derived cell line 5678 cells (Homo sapiens, UniProt O00519).
T1 construct: host or cells: human bladder epithelial cancer-derived cell line ('5678' [sic], HTB-9)
T1 sequence (O00519 1-579): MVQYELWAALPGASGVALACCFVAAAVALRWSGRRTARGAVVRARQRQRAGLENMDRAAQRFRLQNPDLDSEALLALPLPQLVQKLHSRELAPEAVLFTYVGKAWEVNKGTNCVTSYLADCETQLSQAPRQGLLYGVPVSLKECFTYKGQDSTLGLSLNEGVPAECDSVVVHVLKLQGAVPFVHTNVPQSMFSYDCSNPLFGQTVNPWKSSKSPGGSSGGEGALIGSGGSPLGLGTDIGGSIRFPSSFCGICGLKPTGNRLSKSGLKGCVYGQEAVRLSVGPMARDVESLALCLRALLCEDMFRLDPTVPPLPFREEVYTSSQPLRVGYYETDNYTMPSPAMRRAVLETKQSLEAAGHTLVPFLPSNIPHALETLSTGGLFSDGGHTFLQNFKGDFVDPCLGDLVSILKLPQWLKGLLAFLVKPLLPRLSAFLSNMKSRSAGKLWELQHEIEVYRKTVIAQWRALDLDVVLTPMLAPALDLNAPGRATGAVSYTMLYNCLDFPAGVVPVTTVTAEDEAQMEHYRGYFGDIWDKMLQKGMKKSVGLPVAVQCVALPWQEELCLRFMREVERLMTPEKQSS
Description: Screening for FAAH activity-inhibiting substance with human bladder epithelial cancer-derived cell (IC50, Table 64). The assay is classed as cell-based.
Details: not given
On the procedure:
Screening for FAAH Activity-Inhibiting Substance with Human Bladder Epithelial Cancer-Derived Cell
(1) Screening for FAAH Activity-Inhibiting Substance:
Human bladder epithelial cancer-derived cell line […] cells (HTB-9; ATCC) were seeded on a 48-well cell culture plate in an amount of 1×10^5 cell/well, using 10% fetal bovine serum (HyClone)-containing RPMI1640 medium (Invitrogen). After incubated at 37° C. for at least 12 hours, the cells were washed with 400 μl/well of a buffer (Hank's Balanced Salt Solution, 20 mM Hepes-NaOH (pH 7.4)). A test substance dissolved in DMSO was added to a substrate solution (the above buffer containing 3 μCi/ml radiolabeled anandamide (Anandamide [ethanolamine 1-3H]) and 10 μM anandamide) so as to have a concentration of from 0.003 nM to 30 nM. As a control, DMSO alone was added. 100 μl/well of the substrate solution was added to the above cells, and incubated in a CO2 incubator at 37° C. for 30 minutes. Next, the cell culture plate was transferred onto ice, and the substrate solution was removed by suction; and 75 μl/well of a cytolytic solution (the above buffer containing 0.5% Triton X-100, and 10 μM of FAAH-inhibitory activity-having compound, 3′-carbamoylbiphenyl-3-yl cyclohexylcarbamate (URB597; Cayman chemical; Kathuria et al., Nature Med., Vol. 9, pp. 76-81, 2003)) was added thereto, followed by stirring. The resulting cell lysate in every well was individually transferred into a 1.5 ml sample tube, to which was added 150 μl of 1:1 (by volume) chloroform/methanol solution, followed by vortexing. This was centrifuged (15000 rpm, 2 minutes), whereby the decomposed product, ethanolamine (ethanolamine 1-^3H) was separated in the upper layer (water/methanol layer) and the unreacted radiolabeled anandamide was in the lower layer (chloroform layer). 25 μl of the upper layer was transferred into a 96-well organic solvent-resistant white microplate (PicoPlate-96; Perkin Elmer), 150 μl of Microscint-20 (Perkin Elmer) was added thereto, and this was measured with a microplate scintillation counter (TopCount™; Beckman). As compared with the control, the substance that gave a decreased value was selected as an FAAH activity-inhibiting substance.
(2) Measurement of IC50 Value of FAAH Activity-Inhibiting Substance:
A test compound dissolved in DMSO to have a concentration of 10 mM was dissolved in the substrate solution so as to have a varying concentration of from 0.003 nM to 30 μM. According to the method mentioned above, the compound was analyzed for its influence on FAAH activity. As a negative control, DMSO was used. As a positive control, URB597 was added to the substrate solution to have a concentration of 10 μM. Based on the measured value of the positive control, 0%, and on the measured value of the negative control, 100%, IC50 value of the test substance was obtained.
On to `COc1cccc(CCC2CCN(C(=O)Oc3cncc(C(=O)NCCO)c3)CC2)c1` [Example 328], for which the negative logarithm of the IC50 (pIC50) (usually the IC50 on a negative log10 scale, so that one unit is a factor of ten) was 9.38.

`O=C(Oc1cccnc1)N1CCC(S(=O)(=O)c2ccc(OCc3cccc(F)c3)cc2)CC1` [Example 80] showed a negative-log IC50 (pIC50) of 10.36.

The compound `O=C(Oc1cccnc1)N1CCN(C(=O)c2ccc(OCc3cccc([N+](=O)[O-])c3)cc2)CC1` [Example 154] gave a pIC50 of 9.77.

Regarding `NC(=O)c1cncc(OC(=O)N2CCC(CCc3ccc(-c4ccc(F)cc4)cc3)CC2)c1` [Example 338], the negative logarithm of the IC50 (pIC50) was 10.47.

As to `NC(=O)CCNC(=O)c1cncc(OC(=O)N2CCC(CCc3ccccc3)CC2)c1` [Example 333], the pIC50 was 9.37.

Compound `N#Cc1ccc(-c2ccc(CCC3CCN(C(=O)Oc4cncc(C(N)=O)c4)CC3)cc2)cc1` [Example 344] had a negative logarithm of the IC50 (pIC50) of 9.89.

`O=C(Oc1cccnc1)N1CCC(Oc2ccc(OCc3cccc(Cl)c3)cc2)CC1` [Example 206, 3-pyridyl 4-{4-[(3-chlorobenzyl)oxy]phenoxy}-1-piperidinecarboxylate hydrochloride] showed a pIC50 of 9.77.

`N#Cc1cccc(-c2cccc(CCC3CCN(C(=O)Oc4cncc(C(N)=O)c4)CC3)c2)c1` [Example 341] had a negative-log IC50 (pIC50) of 10.11.

Turning to `O=C(Oc1cccnc1)N1CCC(Oc2ccc(OCc3cccc(F)c3)cn2)CC1` [Example 103], the pIC50 was 10.04.

`O=C(Oc1cccnc1)N1CCC(Oc2ccc(OCCC3CCCCC3)cc2)CC1` [Example 207] had a pIC50 of 9.51.

In the case of `COc1cccc(-c2ccc(CCC3CCN(C(=O)Oc4cncc(C(=O)O)c4)CC3)cc2)c1` [Example 303], the negative logarithm of the IC50 (pIC50) is 9.92.

As for `O=C(Oc1cccnc1)N1CCN(C(=O)c2cccc(OCc3cccc(Cl)c3)c2)CC1` [Example 138], the negative-log IC50 (pIC50) was 10.11.

In turn, `N#Cc1cccc(-c2cccc(CCC3CCN(C(=O)Oc4cncc(C(=O)O)c4)CC3)c2)c1` [Example 294] gave a pIC50 of 9.22.

In turn, `CC(=O)OCc1cncc(OC(=O)N2CCC(Oc3ccc(OCc4cccc(F)c4)cc3)CC2)c1` [Example 100] had a negative logarithm of the IC50 (pIC50) of 10.46.

`NC(=O)c1cncc(OC(=O)N2CCC(CCCC3CCN(c4ccc5ccccc5n4)CC3)CC2)c1` [Example 380] showed a pIC50 of 9.46.

Regarding `NC(=O)c1cncc(OC(=O)N2CCC(CCc3cccc(C(=O)NC4CCCCC4)c3)CC2)c1` [Example 351], the pIC50 is 9.89.

Consider `NC(=O)c1cncc(OC(=O)N2CCC(CCc3ccc(-c4ccccc4F)cc3)CC2)c1` [Example 346], for which the pIC50 is 9.57.

`NC(=O)c1cncc(OC(=O)N2CCC(CCc3ccc(-c4cccc(F)c4)cc3)CC2)c1` [Example 345]: the negative logarithm of the IC50 (pIC50) is 9.74.

On to `COc1ccc(-c2ccc(CCC3CCN(C(=O)Oc4cncc(C(=O)O)c4)CC3)cc2)cc1` [Example 300], for which the pIC50 was 9.37.

For `CCCCCCCCc1ccc(NC(=O)C2CCN(C(=O)Oc3cccnc3)CC2)cc1` [Example 176], the pIC50 is 9.08.

Regarding `O=C(Oc1cccnc1)N1CCC(Oc2ccc(OCc3ccccc3)cc2Cl)CC1` [Example 51], the pIC50 is 9.59.

The compound `O=C(O)c1cncc(OC(=O)N2CCC(CCc3ccc(-c4ccccc4)cc3)CC2)c1` [Example 281] had a pIC50 of 10.09.

With `NC(=O)c1cncc(OC(=O)N2CCC(CCc3cccc(-c4ccccc4)c3)CC2)c1` [Example 340], the pIC50 was 10.28.

On to `O=C(Oc1cncc(Cl)c1)N1CCC(Oc2ccc(OCc3cccc(F)c3)cc2)CC1` [Example 42], for which the pIC50 is 9.37.

`NC(=O)c1cncc(OC(=O)N2CCC(CCc3cccc(-c4ccccn4)c3)CC2)c1` [Example 349] had a pIC50 of 10.27.

`CCN(CC)C(=O)c1ccc(CCC2CCN(C(=O)Oc3cncc(C(N)=O)c3)CC2)cc1` [Example 362] gave a pIC50 of 9.38.

In turn, `Cc1cccc(N2CCC(CCCC3CCN(C(=O)Oc4cncc(C(N)=O)c4)CC3)CC2)n1` [Example 378] showed a pIC50 of 9.70.

Consider `O=C(Oc1cccnc1)N1CCN(C(=O)c2ccc(OCc3cccc(Br)c3)cc2)CC1` [Example 159], for which the pIC50 was 9.64.

`O=C(O)c1cncc(OC(=O)N2CCC(CCc3ccc(-c4ccccc4F)cc3)CC2)c1` [Example 304] had a pIC50 of 9.62.

Compound `O=C(Oc1cccnc1)N1CCN(C(=O)c2ccc(OCc3ccc(F)cc3)cc2)CC1` [Example 155] showed a pIC50 of 10.21.

As to `COC(=O)CCc1cncc(OC(=O)N2CCC(Oc3ccc(OCc4cccc(F)c4)cc3)CC2)c1` [Example 61], the pIC50 was 9.46.

Turning to `O=C(Oc1cccnc1)N1CCN(C(=O)c2cccc(OCC3CCCCC3)c2)CC1` [Example 122], the pIC50 is 9.82.

In turn, `O=C(O)c1cncc(OC(=O)N2CCC(CCc3ccc(-c4cccc(F)c4)cc3)CC2)c1` [Example 302] gave a negative logarithm of the IC50 (pIC50) of 9.77.

`N#Cc1ccc(-c2ccc(CCC3CCN(C(=O)Oc4cncc(C(=O)O)c4)CC3)cc2)cc1` [Example 301] showed a negative logarithm of the IC50 (pIC50) of 9.40.

In turn, `O=C(Oc1cccnc1)N1CCN(C(=O)c2ccc(OCc3cccc(C(F)(F)F)c3)cc2)CC1` [Example 149] gave a pIC50 of 9.35.

Regarding `O=C(c1ccc(OCc2cccc(F)c2)cc1)C1CCN(C(=O)Oc2cccnc2)CC1` [Example 3], the negative logarithm of the IC50 (pIC50) is 10.14.

`Cc1ccc(OC(=O)N2CCC(Oc3ccc(OCc4cccc(F)c4)cc3)CC2)cn1` [Example 13] showed a pIC50 of 9.57.

`O=C(Oc1cccnc1)N1CCC(Oc2ccc(OCc3ccccc3F)cc2)CC1` [Example 208] had a pIC50 of 9.89.

Compound `O=C(Oc1cccnc1)N1CCC(S(=O)(=O)c2ccc(OCc3ccccc3)cc2)CC1` [Example 88] gave a pIC50 of 9.43.

In turn, `O=C(Oc1cccnc1)N1CCC(Oc2ccc(OCc3ccccc3)c(Cl)c2)CC1` [Example 70] gave a pIC50 of 10.00.

`O=C(O)c1cncc(OC(=O)N2CCC(CCCC3CCN(c4ccc5ccccc5n4)CC3)CC2)c1` [Example 315] showed a pIC50 of 9.29.

Regarding `CC(C)NC(=O)c1cccc(CCC2CCN(C(=O)Oc3cncc(C(N)=O)c3)CC2)c1` [Example 372], the pIC50 was 9.31.

Take `O=C(Oc1cccnc1)N1CCN(C(=O)c2ccc(OCCc3cccc(Cl)c3)cc2)CC1` [Example 160]: the pIC50 is 9.29.

Consider `CN(C)c1cncc(OC(=O)N2CCC(Oc3ccc(OCc4cccc(F)c4)cc3)CC2)c1` [Example 30], for which the pIC50 was 9.72.

Compound `O=C(Oc1cccnc1)N1CCC(Sc2cccc(OCc3cccc(F)c3)c2)CC1` [Example 101] showed a pIC50 of 10.11.

With `NC(=O)c1cccc(-c2cncc(OC(=O)N3CCC(CCc4ccccc4)CC3)c2)c1` [Example 266], the pIC50 was 9.51.

On to `N#Cc1cccc(CCC2CCN(C(=O)Oc3cncc(C(=O)NCCO)c3)CC2)c1` [Example 330], for which the pIC50 is 9.28.

`O=C(Oc1cccnc1)N1CCC(c2cccc(OCCCc3ccccc3)c2)CC1` [Example 113]: the negative-log IC50 (pIC50) is 10.25.

Turning to `O=C(Oc1cccnc1)N1CCN(C(=O)c2ccc(OCc3cc(F)cc(F)c3)cc2)CC1` [Example 152], the negative logarithm of the IC50 (pIC50) was 9.74.

Regarding `O=C(O)c1cncc(OC(=O)N2CCC(CCc3cccc(-c4ccccc4)c3)CC2)c1` [Example 293], the pIC50 was 9.62.

Staying with this assay, now noted: human bladder epithelial cancer-derived cell line 5678 cells; read-out: cell FAAH IC50.
With `O=C(Nc1ccccc1)C1CCN(C(=O)Oc2cccnc2)CC1` [Example 173], the pIC50 is 9.16.
